Blank lines part the entries; values can stand above or below the compound they belong to.
Key:
[1] = test system: wild type C57B1/6 male mice; experiment: Imiquimod-induced type 17 skin inflammation, topical treatment; type: in vivo, mouse; conditions: for Il17a and Il17f expression in the skin (qRT-PCR) / skin inflammation (ear thickness): imiquimod 6 days, then continued imiquimod plus topical twice a day: LRE1 3%, Clobetasol 0.05%; for skin inflammation (ear thickness): Example 1 […]
Experimental: Wild type C57B1/6 male mice 8-10 week old were purchased from Jackson labs. A 7 mm diameter circle was shaved and treated with Nair on the flank. Baseline ear thickness was measured. For 5 days, mice received daily treatment of 30 mg of 5% imiquimod cream (Taro) to each ear and to the 7 mm area on the flank. Ear thickness was recorded on days 3 and 5 to ensure peak inflammation had occurred. Mice were then randomized into three cohorts: vehicle, LRE1, and Clobetasol. […] Treatment with imiquimod was continued during this period as above. Ear thickness was recorded every day before the first dose of drug. On day 11, all mice were euthanized. A 7 mm punch biopsy was collected from the flank and both ears were removed. Skin was stored in RNAlater (Sigma) for qPCR or 10% formalin for immunohistochemistry.
For tissue, RNA was isolated according to specifications of the RNA easy plus universal mini kit (Qiagen). Tissue was homogenized using stainless steel beads in a bead beater. For frozen cell pellets, RNA was isolated according to specifications of the RNA easy plus mini kit (Qiagen). Samples were homogenized using Qiashredder columns (Qiagen). RNA quality control was performed using a nanodrop spectrophotometer. cDNA was made using the high-capacity rna-to-cdna kit (thermo fischer). The applied biosystems power SYBR green PCR master mix was used for qPCR. 40 cycles with annealing temperatures of 60 degrees celsius and a melting curve were performed using the QuantStudio 6 real-time PCR instrument (thermo fischer). Delta delta CT analysis was performed to determine relative transcription amongst samples normalized to GAPDH.

[2] = test system: purified recombinant human sAC protein; type: biochemical; conditions: 1 mM ATP, 2 mM CaCl2, 4 mM MgCl2, 40 mM NaHCO3
Experimental: Assays for sAC activity using purified protein were performed in 100 μl reactions containing 4 mM MgCl2, 2 mM CaCl2, 1 mM ATP, 40 mM NaHCO3, 50 mM Tris pH 7.5, and 3 mM DTT. Each reaction contained ˜1,000,000 counts of α-^32P labeled ATP.
All in vitro adenylyl cyclase activity assays were performed via the “two-column” method measuring the conversion of [α-^32P] ATP into [^32P] cAMP, as previously described [References 81, 82]. Briefly, human sACt protein [Reference 21] was incubated in buffer containing 50 mM Tris-HCl, pH 7.5, 4 mM MgCl2, 2 mM CaCl2, 1 mM ATP, 3 mM DTT, 40 mM NaHCO3 in the presence of the indicated concentrations of different sAC inhibitors or vehicle (DMSO).

[3] = cited from earlier work

Compound: Cn1cc(Cc2ccccc2OCCN2CCOCC2)c(-c2cc(Cl)nc(N)n2)n1 [Example 69, 4-chloro-6-[1-methyl-4-[[2-(2-morpholinoethoxy)phenyl]methyl]pyrazol-3-yl]pyrimidin-2-amine]
- reduction in inflammation ([1]; imiquimod for one week, then imiquimod plus compound, over 4 days, N=5): 50%

- IC50 [2]: ~1000 nM
Compound: Cn1cc(Cc2ccc(Cl)cc2)c(-c2cc(Cl)nc(N)n2)n1 [Example 13]

Compound: CCCc1nc(C)c2c(=O)[nH]c(-c3cc(S(=O)(=O)N4CCN(CC)CC4)ccc3OCC)nn12 [vardenafil]
- half-lives [3]: 4 to 5 h

Compound: C[C@H]1C[C@H]2[C@@H]3CCC4=CC(=O)C=C[C@]4(C)[C@@]3(F)[C@@H](O)C[C@]2(C)[C@@]1(O)C(=O)CCl [Clobetasol]
- Il17a and Il17f expression in the skin (qRT-PCR) [1]: significant reductions in Il17a and Il17f expression
- skin inflammation (ear thickness) [1]: significant reduction in skin inflammation

Compound: Nc1nc(Cl)cc(N(Cc2ccsc2)C2CC2)n1 [LRE1]
- inflammation in the ears measured by ear calipers ([1]; applied at the same time as imiquimod, N=5): reduce the inflammation
- Il17a and Il17f expression in the skin (qRT-PCR) [1]: significant reductions in Il17a and Il17f expression
- skin inflammation (ear thickness) [1]: significant reduction in skin inflammation

- IC50 [2]: 75 nM
Compound: Cn1cc(Cc2cccc(Cl)c2)c(-c2cc(Cl)nc(N)n2)n1 [Example 11]

- IC50 [2]: 58 nM
Compound: COc1ccccc1Cc1cn(C)nc1-c1cc(Cl)nc(N)n1 [Example 28]

- IC50 [2]: 15 nM
Compound: Nc1nc(Cl)cc(-c2nn(C(F)F)cc2Cc2ccccc2OCC(=O)N2CCOCC2)n1 [Example 95]

Compound: CCCc1nn(C)c2c(=O)[nH]c(-c3cc(S(=O)(=O)N4CCN(C)CC4)ccc3OCC)nc12 [sildenafil]
- half-lives [3]: 4 to 5 h

- IC50 [2]: 110 nM
Compound: Nc1nc(Cl)cc(-c2nn(C(F)F)cc2Cc2ccccc2)n1 [Example 18]

- IC50 [2]: 1200 nM
Compound: CNC(=O)c1ccccc1Cc1cn(C)nc1-c1cc(Cl)nc(N)n1 [Example 52]

- IC50 [2]: 60 nM
Compound: Cn1cc(Cc2ccccc2Cl)c(-c2cc(Cl)nc(N)n2)n1 [Example 15]

— patent US20240239774A1, “SOLUBLE ADENYLYL CYCLASE (SAC) INHIBITORS AND USES THEREOF” (Cornell University, priority 2021, published 2024)
